Legend:
Assay type in all cases: functional
Details in all cases: 96 h, read-out: GI
[1] = test system: Pythium; experiment: Antimicrobial activity against Pythium sp. assessed as inhibition of mycelial growth on potato dextrose agar at 1000 ppm at 27 degC measured after 4 days
[2] = test system: Corticium; experiment: Antimicrobial activity against Corticium sp. assessed as inhibition of mycelial growth on potato dextrose agar at 100 ppm at 27 degC measured after 4 days
[3] = test system: Corticium; experiment: Antimicrobial activity against Corticium sp. assessed as inhibition of mycelial growth on potato dextrose agar at 1000 ppm at 27 degC measured after 4 days
[4] = test system: Pythium; experiment: Antimicrobial activity against Pythium sp. assessed as inhibition of mycelial growth on potato dextrose agar at 100 ppm at 27 degC measured after 4 days

| Structure (SMILES) | inhibition of growth at 1000 ppm [1] [%] | inhibition of growth at 100 ppm [2] [%] | inhibition of growth at 1000 ppm [3] [%] | inhibition of growth at 100 ppm [4] [%] |
| --- | --- | --- | --- | --- |
| CC(C)=CCC/C(C)=C/COP1(=S)N[C@@H](CC(C)C)CO1 (some centres undefined) | 100 | 26.7 | 97.9 | 35.4 |
| CC(C)c1ccc(C=O)cc1 [CUMINALDEHYDE] | 100 | 22 | 100 | 14 |
| Cc1ccc(OP2(=S)N[C@@H](C)CO2)c(C(C)C)c1 (some centres undefined) |  | 31.7 |  | 10.8 |
| CC(C)=CCC/C(C)=C/COP1(=S)N[C@@H](Cc2ccccc2)CO1 (some centres undefined) | 16.9 | 28.5 | 60.4 | 4 |
| Cc1ccc(C(C)C)c(O)c1 [THYMOL] | 100 | 71 | 100 | 93 |
| CC1=CC[C@@H](C(C)(C)O)CC1 [ALPHA-TERPINEOL] | 100 | 71.8 | 100 | 11.2 |
| CC1=CCC(O)(C(C)C)CC1 (centres undefined) [TERPINEOL] | 98.3 | 0 | 98.3 | 7.1 |
| CC(C)=CCCC(C)CCOP1(=S)N[C@@H](C(C)C)CO1 (some centres undefined) |  | 42.6 |  | 87.3 |
| CC(C)=CCCC(C)CCOP1(=S)N[C@@H](CC(C)C)CO1 (some centres undefined) | 53.9 | 26.7 | 82.9 | 24.7 |
| CC[C@H](C)[C@H]1COP(=S)(Oc2cc(C)ccc2C(C)C)N1 (some centres undefined) |  | 0 |  | 3.7 |
| Cc1ccc(C(C)C)c(OP2(=S)N[C@@H](Cc3ccccc3)CO2)c1 (some centres undefined) | 46 | 33.8 | 41 | 19.8 |
| CC(C)=CCCC(C)CCOP1(=S)N[C@@H](Cc2ccccc2)CO1 (some centres undefined) | 30.8 | 21.1 | 66.8 | 1.6 |
| Cc1ccc(O)c(C(C)C)c1 [ISOTHYMOL] | 100 | 72.4 | 100 | 94.3 |
| Cc1ccc(OP2(=S)N[C@@H](C(C)C)CO2)c(C(C)C)c1 (some centres undefined) |  | 0 |  | 24.3 |
| Cc1ccc(OP2(=S)N[C@@H](Cc3ccccc3)CO2)c(C(C)C)c1 (some centres undefined) | 58.2 | 15.3 | 36 | 9.4 |
| C=CCc1ccc(OP2(=S)N[C@@H]([C@@H](C)CC)CO2)c(OC)c1 (some centres undefined) |  | 25.3 |  | 41.7 |
| CC[C@H](C)[C@H]1COP(=S)(OC/C=C(\C)CCC=C(C)C)N1 (some centres undefined) |  | 0 |  | 0 |
| CC(C)=CCC/C(C)=C/CO [GERANIOL] | 100 | 71.8 | 100 | 63.3 |
| CC1(C)C2CC=C(CO)C1C2 (centres undefined) [MYRTENOL] | 100 | 56 | 100 | 41 |
| Cc1ccc(C(C)C)c(OP2(=S)N[C@@H](C(C)C)CO2)c1 (some centres undefined) |  | 18.7 |  | 29.8 |
| C=CCc1ccc(OP2(=S)N[C@@H](CC(C)C)CO2)c(OC)c1 (some centres undefined) |  | 0.8 |  | 9.9 |

| Structure (SMILES) | inhibition of growth at 1000 ppm [1] [%] | inhibition of growth at 100 ppm [2] [%] | inhibition of growth at 1000 ppm [3] [%] | inhibition of growth at 100 ppm [4] [%] |
| --- | --- | --- | --- | --- |
| CC[C@H](C)[C@H]1COP(=S)(Oc2ccc(C)cc2C(C)C)N1 (some centres undefined) |  | 0 |  | 12.5 |
| CC(=O)CCc1ccccc1 [BENZYLACETONE] | 100 | 30.5 | 100 | 24.5 |
| CC(C)=CCCC(C)CCO (centres undefined) [CITRONELLOL] | 100 | 23.9 | 100 | 68.9 |
| Cc1ccc(C(C)C)c(OP2(=S)N[C@@H](C)CO2)c1 (some centres undefined) |  | 0 |  | 0 |
| COC(=O)/C=C/c1ccccc1 [E-METHYL CINNAMATE] | 100 | 54 | 100 | 66 |
| CC12CCC(CC1)C(C)(C)O2 [EUCALYPTOL] | 0.4 | 8.3 | 0 | 0 |
| Cc1ccc(C(C)C)cc1 [P-CYMENE] | 0.2 | 14.4 | 13.6 | 0 |
| Cc1ccc(OP2(=S)N[C@@H](CC(C)C)CO2)c(C(C)C)c1 (some centres undefined) | 58.2 | 14.6 | 64.3 | 11.7 |
| CC1(C)C2CCC1(C)C(O)C2 (centres undefined) [BORNEOL] | 100 | 27.7 | 100 | 21.1 |
| C=C1CCC2CC1C2(C)C (stereo not drawn) [BETA-PINENE] | 2.2 | 1.2 | 16.3 | 0 |
| CC[C@H](C)[C@H]1COP(=S)(OCCC(C)CCC=C(C)C)N1 (some centres undefined) |  | 0 |  | 0 |
| CC(C)=CCCC(C)CCOP1(=S)N[C@@H](C)CO1 (some centres undefined) |  | 0 |  | 0 |
| Cc1ccc(C(C)C)c(OP2(=S)N[C@@H](CC(C)C)CO2)c1 (some centres undefined) | 36.1 | 36.8 | 77.1 | 19.8 |
| CC(C)=CCC/C(C)=C/COP1(=S)N[C@@H](C(C)C)CO1 (some centres undefined) |  | 68.6 |  | 68.2 |
| C=CCc1ccc(OP2(=S)N[C@@H](C(C)C)CO2)c(OC)c1 (some centres undefined) |  | 37.5 |  | 53.9 |
| C=CCc1ccc(O)c(OC)c1 [EUGENOL] | 100 | 67.6 | 100 | 92.7 |
| CC1=CCC2CC1C2(C)C (stereo not drawn) [ALPHA-PINENE] | 0 | 0.8 | 46.3 | 4 |
| CC12CCC(CC1=O)C2(C)C (centres undefined) [CAMPHOR] | 9.3 | 0.4 | 22.1 | 0 |
| C=CC(C)(O)CCC=C(C)C (centres undefined) [LINALOOL] | 67.4 | 46.9 | 93.9 | 21.3 |
| CC(C)=CCC/C(C)=C/COP1(=S)N[C@@H](C)CO1 (some centres undefined) |  | 22.7 |  | 20.2 |

— ChEMBL document CHEMBL3045387, “Synthesis and Fungicidal Activity of New 1, 3, 2-Oxazaphospholidine 2-Sulfides” (1994)
